Consider 18 compounds from publication PMC9850959 (European journal of medicinal chemistry, 2019).

The target in one data set is T1, human nSMase2 (Homo sapiens, UniProt Q9NY59).
T1 sequence (Q9NY59 1-655): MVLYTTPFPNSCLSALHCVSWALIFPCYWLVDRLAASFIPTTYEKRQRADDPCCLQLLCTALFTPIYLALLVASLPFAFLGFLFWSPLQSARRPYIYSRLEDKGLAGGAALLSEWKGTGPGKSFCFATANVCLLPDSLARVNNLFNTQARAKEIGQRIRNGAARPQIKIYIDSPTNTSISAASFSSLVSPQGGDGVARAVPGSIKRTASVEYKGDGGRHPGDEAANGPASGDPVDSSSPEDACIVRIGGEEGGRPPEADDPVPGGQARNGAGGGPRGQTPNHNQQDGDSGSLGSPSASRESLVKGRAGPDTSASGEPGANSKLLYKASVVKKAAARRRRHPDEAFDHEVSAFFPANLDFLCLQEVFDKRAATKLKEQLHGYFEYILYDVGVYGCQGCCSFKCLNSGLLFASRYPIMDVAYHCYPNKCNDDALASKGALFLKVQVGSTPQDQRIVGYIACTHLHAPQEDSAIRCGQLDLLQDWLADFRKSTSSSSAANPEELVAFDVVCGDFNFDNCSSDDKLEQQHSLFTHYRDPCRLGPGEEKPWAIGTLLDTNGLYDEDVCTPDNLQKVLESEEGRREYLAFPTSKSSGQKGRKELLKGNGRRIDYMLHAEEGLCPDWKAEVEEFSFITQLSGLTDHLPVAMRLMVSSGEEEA
In words: fluorescence-based coupled nSMase2 assay. The class given is biochemical. The conditions noted are these: for nSMase2 inhibitory activity (in words): compared with DPTIP or parent analog.

Data set [1] relates to AP, choline oxidase, and horseradish peroxidase. As to the kind of experiment: counter screen assay without nSMase2 and sphingomyelin, with phosphorylcholine. It is filed as biochemical. (Counterscreens check selectivity or assay interference.)
For data set [2] the following is noted: cited from earlier work.
For data set [3] the following is noted: cited from earlier work. The source holds these as a separate data set.
Data set [4] is described as follows: phase I metabolic stability in mouse liver microsomes. It is filed as in vitro ADME.
Data set [5] is described as follows: phase I metabolic stability in human liver microsomes. The class given is in vitro ADME. For orientation: Microsomes from liver hold many membrane-bound enzymes, among them those of drug oxidation.
Data set [6] can be described thus: glucuronidation stability in mouse liver microsomes in the presence of UDPGA. It is filed as in vitro ADME.
Data set [7] can be described thus: oral pharmacokinetics in mice. The class given is in vivo.
A further data set concerns nSMase2. The settings on record: with respect to sphingomyelin; cited from earlier work.
In data set [8] the test system is primary astrocyte cultures. The settings on record: cited from earlier work.
Data set [9] concerns IL-1β-induced astrocyte-derived extracellular vesicle release. The conditions noted are these: GFAP-GFP mice, brain injury model; cited from earlier work.

Entries after “also recorded” stand apart in the source; their conditions may differ. Structures can show the parent of a compound that is named as a salt.

With `Oc1c(Cl)cc(-c2nc(-c3ccccc3)c(-c3cccs3)[nH]2)cc1Cl` [Compound 6e, 2,6-Dichloro-4-(4-phenyl-5-(thiophen-2-yl)-1H-imidazol-2-yl)phenol], at human nSMase2, the “nSMase2 inhibitory activity (in words)” value is on record as “complete loss of activity”.
`Oc1cc(-c2nc(-c3ccccc3)c(-c3cccs3)[nH]2)cc(O)c1O` [Compound 6d, 5-(4-Phenyl-5-(thiophen-2-yl)-1H-imidazol-2-yl)benzene-1,2,3-triol]: the “inhibition in the counter assay (in words)” value (from here on “inhibition … (in words)”) in [1] is reported as “potent inhibition”.
As to `Oc1c(OC2CCCC2)cc(-c2nc(-c3ccccc3)c(-c3cccs3)[nH]2)cc1OC1CCCC1` [Compound 9c, 2,6-Bis(cyclopentyloxy)-4-(5-phenyl-4-(thiophen-2-yl)-1H-imidazol-2-yl)phenol], the “nSMase2 inhibitory activity (in words)” value on human nSMase2 is on record as “decrease in potency”.
The same measure, in the same setting: then `COc1cc(-c2nccs2)cc(OC)c1O` [Compound 19, 2,6-Dimethoxy-4-(thiazol-2-yl)phenol], with “substantial decrease in potency”; and `Oc1cccc(-c2nc(-c3ccccc3)c(-c3cccs3)[nH]2)c1` [Compound 6j], with “complete loss of potency”.
Take `O=c1[nH]c(=S)[nH]c(-c2ccccc2)c1Cc1c(O)ccc2ccccc12` [Cambinol]: the “solubility compared to GW4869 (in words)” value in [2] is “better solubility compared to GW4869”. Also, in [3], the “metabolic stability (in words)” value is “metabolically unstable”.
`Oc1c(OCC(F)(F)F)cc(-c2nc(-c3ccccc3)c(-c3cccs3)[nH]2)cc1OCC(F)(F)F` [Compound 12, 4-(4-Phenyl-5-(thiophen-2-yl)-1H-imidazol-2-yl)-2,6-bis(2,2,2-trifluoroethoxy)phenol]: the “phase I metabolic stability (in words)” value in data set [4] and in data set [5] was “metabolic stability was completely regained” each time.
For `COc1cc(-c2nc(-c3ccccc3)c(-c3cccs3)[nH]2)cc(O)c1O` [Compound 6c, 3-Methoxy-5-(4-phenyl-5-(thiophen-2-yl)-1H-imidazol-2-yl)benzene-1,2-diol], the “inhibition … (in words)” value in data set [1] is “potent inhibition”.
Consider `CC(C)(C)Oc1cc(-c2nc(-c3ccccc3)c(-c3cccs3)[nH]2)cc(OC(C)(C)C)c1O` [Compound 16, 2,6-Di-t-butoxy-4-(4-phenyl-5-(thiophen-2-yl)-1H-imidazol-2-yl)phenol], for which the “nSMase2 inhibitory activity (in words)” value at human nSMase2 is given as “decrease in potency”.
Turning to `COc1cc(C2=NCCN2)cc(OC)c1O` [Compound 22, 4-(4,5-Dihydro-1H-imidazol-2-yl)-2,6-dimethoxyphenol hydrochloride], on human nSMase2, the “nSMase2 inhibitory activity (in words)” value is given as “complete loss of potency”.
Still for that read-out and setting: then `COc1cc(-c2nc(-c3ccccc3)c(-c3cccs3)[nH]2)cc(OC)c1OC` [Compound 6g], with “completely inactive”.
For the compound `COc1cc(-c2nc(C(C)C)c(C(C)C)[nH]2)cc(OC)c1O` [Compound 25b, 4-(4,5-Diisopropyl-1H-imidazol-2-yl)-2,6-dimethoxyphenol hydrochloride], the “phase I metabolic stability (in words)” value in [4] and in data set [5] was “metabolically stable” throughout. In addition, in [6] (mouse, liver microsomes, pH 7.5), the remaining at 1 h was less than 20%. In [7] (mouse plasma after oral administration), the “major metabolite in plasma” value is reported as “glucuronide”. Further, the “plasma exposure compared to DPTIP (in words)” value in data set [7] (oral administration, mice) was “higher plasma exposure; also recorded: superior plasma pharmacokinetics”. The “CNS penetration (in words)” value in data set [7] (oral, mice) is reported as “negligible CNS penetration”.
On to `COc1cc(-c2ncc[nH]2)cc(OC)c1O` [Compound 3a, 4-(1H-Imidazol-2-yl)-2,6-dimethoxyphenol], for which, at human nSMase2, the “loss of inhibitory potency relative to DPTIP” value worked out at 10 fold.
Take `O=C(/C=C\c1ccc(/C=C\C(=O)Nc2ccc(C3=NCCN3)cc2)cc1)Nc1ccc(C2=NCCN2)cc1` [GW4869]: the “aqueous solubility (in words)” value in data set [2] was “negligible aqueous solubility”.
Take `Oc1ccccc1-c1nc(-c2ccccc2)c(-c2cccs2)[nH]1` [Compound 6i]: the “nSMase2 inhibitory activity (in words)” value at human nSMase2 is “complete loss of potency”.
Consider `CC(C)Oc1cc(-c2nc(-c3ccccc3)c(-c3cccs3)[nH]2)cc(OC(C)C)c1O` [Compound 9b, 2,6-Diisopropoxy-4-(4-phenyl-5-(thiophen-2-yl)-1H-imidazol-2-yl)phenol], for which the “resistance to glucuronidation (in words)” value in [6] (mouse liver microsomes, UDPGA) is listed as “completely resistant to glucuronidation; also recorded: complete resistance to glucuronidation”.
Turning to `COc1cc(-c2nc(-c3cccs3)c(-c3ccccc3)[nH]2)cc(OC)c1O` [DPTIP, 2,6-dimethoxy-4-[4-phenyl-5-(2-thienyl)-1H-imidazol-2-yl]phenol], the “phase I metabolic stability (in words)” value in [4] and in [5] was “stable” each time. The “loss of the parent compound” value in data set [6] (mouse liver microsomes, UDPGA, 1 h) came to 33%. In the data set with nSMase2, the mechanism of inhibition result is reported as “noncompetitive”. Also, the “extracellular vesicle release (in words)” value in data set [8] is “dose-dependently inhibit extracellular vesicle release”. Also, the “IL-1β-induced astrocyte-derived extracellular vesicle release (in words)” value in [9] is “attenuate”.
Turning to `Oc1ccc(-c2nc(-c3ccccc3)c(-c3cccs3)[nH]2)cc1` [Compound 6b, 4-(4-Phenyl-5-(thiophen-2-yl)-1H-imidazol-2-yl)phenol], at human nSMase2, the “loss of inhibitory potency relative to DPTIP” value is 100 fold. In addition, the “inhibition … (in words)” value in data set [1] is recorded as “no longer distinguishable”.
